Test results reported in patent US11571396B2, “Ketamine for treatment of ADNP syndrome and sensory processing deficits” (priority 2019, dated 2023).

Legend:
ADNP gene expression = settings: cited from earlier work; for ADNP gene expression increase: somatosensory cortex of post-natal day 7 rats, sedative dose
Neurons = Neurons treated with low concentration ketamine: ADNP levels and growth cones; format: cell-based
Text: We believe that low-dose ketamine, by inducing ADNP, does more than could be with NAP alone.

[1] = tested on: caspase-3 activation in the hippocampus and somatosensory cortex; assay: Ketamine-induced neuronal cell death / injury, low-dose ketamine pre-treatment; format: in vivo, rats; settings: for high dose ketamine induced injury: low dose ketamine 5 mg/kg, NAP administration
Text: ADNP induction may be partially responsible for the efficacy of a low-dose ketamine pre-treatment in preventing ketamine-induced neuronal cell death. […] It is therefore theorized that low-dose ketamine prevents high-dose ketamine injury at least in part by increasing expression of ADNP.

growth cones = settings: cited from earlier work

Row | Molecule | ADNP gene expression increase (ADNP gene expression) [fold] | negative effects of decreased growth cones (Neurons; 50 μM) | ADNP levels (Neurons; 50 μM, compared with higher ketamine dosing) | location of primary increase in ADNP (Neurons; following ketamine treatment) | total cellular ADNP levels (Neurons; low concentration exposure, 50 or 100 μM) | ADNP in neurites (Neurons; low concentration of ketamine) | growth cones (Neurons; low concentration of ketamine) | apoptosis ([1]; high-dose ketamine, rats) | expression of ADNP ([1]; high-dose ketamine, rats) | high dose ketamine induced injury [1] | ADNP levels ([1]; low-dose ketamine) | caspase-3 activation ([1]; low-dose ketamine, hippocampus and somatosensory cortex) | gene expression of ADNP (ADNP gene expression; anesthetic doses) | ADNP protein levels (ADNP gene expression; low doses, including in the somatosensory cortex) | ADNP expression (ADNP gene expression; low doses) | invasion of dynamic microtubules into growth cones (growth cones)
1 | C[C@]12N[C@H](Cc3ccccc31)c1ccccc12 [MK801] | 1.5 | – | – | – | – | – | – | – | – | – | – | – | – | – | – | –
2 | CNC1(c2ccccc2Cl)CCCCC1=O (stereo not drawn) [ketamine] | 1.5 | not observed | increased at a rate equivalent to higher ketamine dosing | the primary increase in ADNP occurred in the nucleus | notably increased | significant increase | stably expanded growth cones | induce apoptosis | induce | blocks high dose ketamine induced injury | increases ADNP levels | prevents caspase-3 activation | induce gene expression of ADNP | increase ADNP protein levels | induce ADNP expression | –
3 | NAPVSIPQ | – | – | – | – | – | – | – | – | – | blocks high dose ketamine induced injury | – | – | – | – | – | enhance the invasion of dynamic microtubules into growth cones
